The experiment deals with human PHD2 (Homo sapiens (Human), UniProt Q9GZT9). As to the kind of experiment: Test 2: human PHD2 inhibitory activity, fluorescence polarization assay of HIF-1α peptide proline hydroxylation. The class given is biochemical. To be noted: for inhibition at 1 µM: read-out: Percent inhibition (% at 1 μM); for pIC50: human PHD2, fluorescence polarization assay, 20-min incubation at 30° C. On the procedure:
(1) Expression and Preparation of Human PHD2
A registered sequence of human PHD2 (NM_022051) was introduced into pcDNA3.1/Hygro(+) vector (Invitrogen), and the sequence was verified. […] The suspension of disrupted cells was centrifuged at 4° C. and 100,000×g for 30 minutes and the supernatant was recovered as a cell lysate.
(2) Measurement of Human PHD2 Inhibitory Activity
The activity of human PHD2 enzyme was measured with a substrate which is a 19-residue partial peptide based on the sequence of HIF-1α; specifically, the hydroxylation of a proline residue in the peptide was measured by FP (Fluorescence Polarization).
A test compound and the substrate solution were preliminarily added onto 384-well plates and reaction was initiated by adding a human PHD2 enzyme solution (40 ng/well). After 20-min incubation at 30° C., an EDTA-containing quench solution was added and the amount of the proline residues hydroxylated via binding to an added HIF—OH antibody solution was quantified by fluorescence polarization.
The fluorescence polarization of each well was measured and the human PHD2 inhibitory activity of each test compound was calculated on the basis of the values for the test compound-free group.
(In general: Fluorescence polarisation rises when a labelled molecule tumbles more slowly, as on binding a larger partner.)

The mark [1] stands for this setting: test compound's concentration 1 μM, Test 2, fluorescence polarization assay.

pIC50: −log10 of the molar value.

Sequence of human PHD2 (Q9GZT9 whole entry): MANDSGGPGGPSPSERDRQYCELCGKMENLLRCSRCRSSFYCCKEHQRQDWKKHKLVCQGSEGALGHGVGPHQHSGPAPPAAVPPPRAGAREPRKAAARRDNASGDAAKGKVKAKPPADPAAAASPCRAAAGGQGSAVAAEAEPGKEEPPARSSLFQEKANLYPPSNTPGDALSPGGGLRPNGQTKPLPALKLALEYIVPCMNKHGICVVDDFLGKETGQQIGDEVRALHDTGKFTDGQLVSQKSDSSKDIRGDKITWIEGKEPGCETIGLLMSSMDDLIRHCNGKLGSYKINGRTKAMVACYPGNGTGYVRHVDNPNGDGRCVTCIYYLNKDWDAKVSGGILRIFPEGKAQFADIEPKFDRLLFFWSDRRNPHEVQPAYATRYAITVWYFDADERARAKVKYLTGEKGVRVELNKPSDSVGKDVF

On to `O=C(O)CNC(=O)C1=C(O)CCN(Cc2ccc(OCc3ccccc3)c(F)c2)C1=O` [Ex. 1-374], for which the inhibition (as a rule, the relative decrease from the control value, in per cent) at 1 µM under setting [1] worked out at 96%.

Take `O=C(O)CNC(=O)C1=C(O)CCN(Cc2ccc(OCc3ccc(OC(F)(F)F)cc3)cc2)C1=O` [Ex. 1-375]: the inhibition at 1 µM under setting [1] is 85%.

For `CCc1ccc(Oc2ccc(CN3CCC(O)=C(C(=O)NCC(=O)O)C3=O)cn2)cc1` [Ex. 1-376], the pIC50 – broadly, the IC50 on a negative log10 scale, so that one unit is a factor of ten – is 7.66. Moreover, under setting [1], the inhibition at 1 µM is 100%. The corresponding values for `CCCc1ccc(Oc2ccc(CN3CCC(O)=C(C(=O)NCC(=O)O)C3=O)cn2)cc1` [Ex. 1-377] are 7.82 and 96%. Taken in the same sequence, the figures for `CC(C)c1ccc(Oc2ccc(CN3CCC(O)=C(C(=O)NCC(=O)O)C3=O)cn2)cc1` [Ex. 1-378] were 7.85 and 98%. Turning to `Cc1cc(CN2CCC(O)=C(C(=O)NCC(=O)O)C2=O)ccc1OCC(F)(F)F` [Ex. 1-379], the inhibition at 1 µM under setting [1] turned out to be 84%. On the same count and under the same terms, the same measure for `O=C(O)CNC(=O)C1=C(O)CCN(Cc2ccc(OCc3ccccc3)nc2)C1=O` [Ex. 1-380]: 92%. Same read-out and setting: the same measure for `Cc1cc(CN2CCC(O)=C(C(=O)NCC(=O)O)C2=O)ccc1OCc1ccccc1` [Ex. 1-381]: 92%; for `O=C(O)CNC(=O)C1=C(O)CCN(Cc2ccc(OCCC(F)(F)F)cc2)C1=O` [Ex. 1-382]: 83%.

`Cc1cc(CN2CCC(O)=C(C(=O)NCC(=O)O)C2=O)ccc1OCCC(F)(F)F` [Ex. 1-383]: the inhibition at 1 µM under setting [1] was 83%. On the same count and under the same terms, the same measure for `O=C(O)CNC(=O)C1=C(O)CCN(Cc2ccc(OCCC(F)(F)F)c(F)c2)C1=O` [Ex. 1-384]: 82%. Turning to `Cc1ccc(Oc2cnc(CN3CCC(O)=C(C(=O)NCC(=O)O)C3=O)cn2)cc1` [Ex. 1-385], the pIC50 is 7.27. Further, under setting [1], the inhibition at 1 µM is 93%. The compound `Cc1ccc(Oc2ccc(CN3CCC(O)=C(C(=O)NCC(=O)O)C3=O)cc2)cc1C` [Ex. 1-386] showed a pIC50 of 7.32. In addition, under setting [1], the inhibition at 1 µM amounted to 92%. In the case of `Cc1ccc(COc2ccc(CN3CCC(O)=C(C(=O)NCC(=O)O)C3=O)cc2F)cc1` [Ex. 1-387], the inhibition at 1 µM under setting [1] came to 93%. Same read-out and setting: the same measure for `Cc1cc(CN2CCC(O)=C(C(=O)NCC(=O)O)C2=O)ccc1OCc1ccc(F)cc1` [Ex. 1-388]: 92%. Take `Cc1cc(CN2CCC(O)=C(C(=O)NCC(=O)O)C2=O)ccc1OCc1ccc(OC(F)(F)F)cc1` [Ex. 1-389]: under setting [1], the inhibition at 1 µM is 69%. Same read-out and setting: as for `O=C(O)CNC(=O)C1=C(O)CCN(CC2CCC(Oc3ccccc3)CC2)C1=O` (stereo not drawn) [Ex. 1-390], the figure is 89%. Take `O=C(O)CNC(=O)C1=C(O)CCN(CC2CCC(Oc3ccccc3)CC2)C1=O` (stereo not drawn) [Ex. 1-391]: under setting [1], the “Percent inhibition (% at 1 μM)” value is reported as 82%. `Cc1ccc(Oc2ncc(CN3CCC(O)=C(C(=O)NCC(=O)O)C3=O)cc2Cl)cc1` [Ex. 1-392] gave a pIC50 of 7.59. Moreover, under setting [1], the inhibition at 1 µM was 98%. Regarding `Cc1ccc(Oc2ncc(CN3CCC(O)=C(C(=O)NCC(=O)O)C3=O)cc2F)cc1` [Ex. 1-393], the pIC50 is 7.49. Under setting [1], the inhibition at 1 µM was 98%.

`Cc1nc(COc2ccc(CN3CCC(O)=C(C(=O)NCC(=O)O)C3=O)cc2Cl)c(C)o1` [Ex. 1-394]: the inhibition at 1 µM under setting [1] was 83%. Take `O=C(O)CNC(=O)C1=C(O)CCN(C[C@@H]2CC[C@@H](c3ccccc3)C2)C1=O` [Ex. 1-395]: under setting [1], the inhibition at 1 µM came to 90%.

Consider `CC1(COc2ccc(CN3CCC(O)=C(C(=O)NCC(=O)O)C3=O)cn2)CC1` [Ex. 1-396], for which, under setting [1], the inhibition at 1 µM was 89%. Still for that read-out and setting: the same measure for `Cc1ccc(COc2ccc(CN3CCC(O)=C(C(=O)NCC(=O)O)C3=O)cc2)cn1` [Ex. 1-398]: 91%; for `O=C(O)CNC(=O)C1=C(O)CCN(CC2(c3ccccc3)CC2)C1=O` [Ex. 1-399]: 55%; for `Cc1ncccc1COc1ccc(CN2CCC(O)=C(C(=O)NCC(=O)O)C2=O)cc1` [Ex. 1-401]: 90%.

Consider `O=C(O)CNC(=O)C1=C(O)CCN(C[C@H]2CC[C@H](Oc3ccc(F)cc3)CC2)C1=O` [Ex. 1-402], for which, under setting [1], the inhibition at 1 µM is 109%. Same read-out and setting: as for `O=C(O)CNC(=O)C1=C(O)CCN(C[C@H]2CC[C@H](Oc3ccc(C(F)(F)F)cc3)CC2)C1=O` [Ex. 1-403], the figure is 102%. With `O=C(O)CNC(=O)C1=C(O)CCN(Cc2ccc(Oc3ccc(C4CC4)cn3)cc2)C1=O` [Ex. 1-404], the pIC50 is 7.25. Besides, the inhibition at 1 µM under setting [1] came out at 96%. `O=C(O)CNC(=O)C1=C(O)CCN(Cc2ccc(OCc3ccc(Cl)cn3)cc2)C1=O` [Ex. 1-405]: under setting [1], the inhibition at 1 µM was found to be 90%.

With `Cc1cnc(COc2ccc(CN3CCC(O)=C(C(=O)NCC(=O)O)C3=O)cc2)s1` [Ex. 1-406], under setting [1], the inhibition at 1 µM stood at 86%. `O=C(O)CNC(=O)C1=C(O)CCN(Cc2ccc(OCc3cn4ccsc4n3)cc2)C1=O` [Ex. 1-407]: under setting [1], the inhibition at 1 µM amounted to 85%. Compound `Cc1ccc(Oc2ncc(CN3CCC(O)=C(C(=O)NCC(=O)O)C3=O)cn2)cc1` [Ex. 1-408] showed a pIC50 of 7.14. Further, under setting [1], the inhibition at 1 µM amounted to 91%. Taken in the same sequence, the figures for `Cc1cc(CN2CCC(O)=C(C(=O)NCC(=O)O)C2=O)cnc1Oc1ccc(Cl)cc1` [Ex. 1-409] were 7.60 and 98%. On to `Cc1cc(CN2CCC(O)=C(C(=O)NCC(=O)O)C2=O)cnc1OCC(F)(F)F` [Ex. 1-410], for which the inhibition at 1 µM under setting [1] amounted to 82%. Still for that read-out and setting: as for `Cc1cc(CN2CCC(O)=C(C(=O)NCC(=O)O)C2=O)cnc1OCCC1CC1` [Ex. 1-411], the figure is 90%. For `O=C(O)CNC(=O)C1=C(O)CCN(C[C@H]2CC[C@H](Oc3ccc(F)cn3)CC2)C1=O` [Ex. 1-412], the inhibition at 1 µM under setting [1] came to 87%. Still for that read-out and setting: the same measure for `CC(C)(CN1CCC(O)=C(C(=O)NCC(=O)O)C1=O)c1ccc(Cl)cc1` [Ex. 1-413]: 75%; for `O=C(O)CNC(=O)C1=C(O)CCN(Cc2ccc(-c3ccc(C4CC4)nc3)cc2)C1=O` [Ex. 1-414]: 96%. Same read-out and setting: the same measure for `Cc1ccc(OCc2ccc(CN3CCC(O)=C(C(=O)NCC(=O)O)C3=O)cc2)cn1` [Ex. 1-415]: 94%; for `O=C(O)CNC(=O)C1=C(O)CCN(Cc2ccc(COc3ccccc3)cc2)C1=O` [Ex. 1-416]: 95%. On to `Cc1ccc(OCc2ccc(CN3CCC(O)=C(C(=O)NCC(=O)O)C3=O)cc2)cc1` [Ex. 1-417], for which the inhibition at 1 µM under setting [1] came to 99%. Same read-out and setting: as for `Cc1ccc(COc2ccc(CN3CCC(O)=C(C(=O)NCC(=O)O)C3=O)cn2)cc1` [Ex. 1-418], the figure is 98%; as for `O=C(O)CNC(=O)C1=C(O)CCN(Cc2ccc(OCc3ccc(Cl)cc3)nc2)C1=O` [Ex. 1-419], 98%.

As for `O=C(O)CNC(=O)C1=C(O)CCN(Cc2cnc(OCCC3CC3)c(Cl)c2)C1=O` [Ex. 1-420], under setting [1], the inhibition at 1 µM is 92%. On the same count and under the same terms, the same measure for `COc1cccc(-c2ccc(CN3CCC(O)=C(C(=O)NCC(=O)O)C3=O)cc2)n1` [Ex. 1-421]: 99%; for `O=C(O)CNC(=O)C1=C(O)CCN(Cc2ccc(-c3ccc(Cl)cn3)cc2)C1=O` [Ex. 1-422]: 100%. The same measure, in the same setting: the same measure for `O=C(O)CNC(=O)C1=C(O)CCN(Cc2ccc(COc3ccc(C(F)(F)F)nc3)cc2)C1=O` [Ex. 1-423]: 96%. The same measure, in the same setting: as for `O=C(O)CNC(=O)C1=C(O)CCN(Cc2ccc(COc3ccc(C(F)(F)F)cn3)cc2)C1=O` [Ex. 1-424], the figure is 97%.

In the case of `COc1cccnc1-c1ccc(CN2CCC(O)=C(C(=O)NCC(=O)O)C2=O)cc1` [Ex. 1-425], the inhibition at 1 µM under setting [1] was 90%. Still for that read-out and setting: the same measure for `COc1ccc(-c2ccc(CN3CCC(O)=C(C(=O)NCC(=O)O)C3=O)cc2)nc1` [Ex. 1-426]: 88%; for `O=C(O)CNC(=O)C1=C(O)CCN(CC2CCC(OCc3ccc(Cl)cc3)CC2)C1=O` (stereo not drawn) [Ex. 1-427]: 95%.

Regarding `O=C(O)CNC(=O)C1=C(O)CCN(C[C@H]2CC[C@H](Oc3ccc(Cl)cc3)CC2)C1=O` [Ex. 1-428], the inhibition at 1 µM under setting [1] came out at 100%. Still for that read-out and setting: the same measure for `O=C(O)CNC(=O)C1=C(O)CCN(C[C@H]2CC[C@H](OCc3ccc(Cl)cc3)CC2)C1=O` [Ex. 1-429]: 96%; for `Cc1ccc(O[C@H]2CC[C@H](CN3CCC(O)=C(C(=O)NCC(=O)O)C3=O)CC2)cc1` [Ex. 1-430]: 95%. With `CCc1ccc(O[C@H]2CC[C@H](CN3CCC(O)=C(C(=O)NCC(=O)O)C3=O)CC2)cc1` [Ex. 1-431], the inhibition at 1 µM under setting [1] amounted to 99%. Still for that read-out and setting: as for `O=C(O)CNC(=O)C1=C(O)CCN(C[C@H]2CC[C@H](Oc3ccc(Cl)cn3)CC2)C1=O` [Ex. 1-432], the figure is 93%. With `O=C(O)CNC(=O)C1=C(O)CCN(C[C@H]2CC[C@@H](Oc3ccc(F)cn3)CC2)C1=O` [Ex. 1-433], the inhibition at 1 µM under setting [1] came out at 76%.

On to `O=C(O)CNC(=O)C1=C(O)CCN(C[C@H]2CC[C@@H](Oc3ccc(F)cc3)CC2)C1=O` [Ex. 1-434], for which, under setting [1], the inhibition at 1 µM came to 85%. Take `Cc1ccc(O[C@H]2CC[C@H](CN3CCC(O)=C(C(=O)NCC(=O)O)C3=O)CC2)nc1` [Ex. 1-435]: under setting [1], the inhibition at 1 µM was determined as 87%.

`COc1ccnc(-c2ccc(CN3CCC(O)=C(C(=O)NCC(=O)O)C3=O)cc2)c1` [Ex. 1-436]: the inhibition at 1 µM under setting [1] came out at 85%. The same measure, in the same setting: the same measure for `O=C(O)CNC(=O)C1=C(O)CCN(C[C@H]2CC[C@H](Oc3ccc(C(F)(F)F)cn3)CC2)C1=O` [Ex. 1-437]: 92%.
